ChEMBL document CHEMBL1201862, “PubChem BioAssay data set” (2004)
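All cell lines were grown in 96-well plates and treated with compound for 48 hours. GI50: concentration for 50% inhibition of growth.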 Activity calls are given as the source filed them. No stated cut-off is given here; in the data, active = GI50 up to about 1.1 µM and inactive = higher.

Experiments:
Assay in all cases: NCI-60 cell line screen, 48 h
SF-539 = tested on: SF-539
SK-MEL-2 = tested on: SK-MEL-2
MDA-MB-231 = tested on: MDA-MB-231
NCI-H460 = tested on: NCI-H460
UACC-62 = tested on: UACC-62
COLO 205 = tested on: COLO 205
KM12 = tested on: KM12
A549 = tested on: A549
Malme-3M = tested on: Malme-3M
ACHN = tested on: ACHN
HCT-15 = tested on: HCT-15
MDA-MB-435 = tested on: MDA-MB-435
Hs-578T = tested on: Hs-578T
DU-145 = tested on: DU-145
NCI-H522 = tested on: NCI-H522
HL-60 = tested on: HL-60
CAKI-1 = tested on: CAKI-1
RPMI-8226 = tested on: RPMI-8226
SN12C = tested on: SN12C
CCRF-CEM = tested on: CCRF-CEM

Compound	GI50 (SF-539)	GI50 (SK-MEL-2)	GI50 (MDA-MB-231)	GI50 (NCI-H460)	GI50 (UACC-62)	GI50 (COLO 205)	GI50 (KM12)	GI50 (A549)	GI50 (Malme-3M)	GI50 (ACHN)	GI50 (HCT-15) [µM]	GI50 (MDA-MB-435)	GI50 (Hs-578T)	GI50 (DU-145)	GI50 (NCI-H522)	GI50 (HL-60)	GI50 (CAKI-1)	GI50 (RPMI-8226)	GI50 (SN12C)	GI50 (CCRF-CEM)
N#CC1=C(N)OC2=C(CCCc3ccc([N+](=O)[O-])cc32)C1c1ccccc1 (stereo unspecified)	3.17 µM (inactive)	4.58 µM (inactive)	17.7 µM (inactive)	4.49 µM (inactive)	1.98 µM (inactive)	3.69 µM (inactive)	3.15 µM (inactive)	6.21 µM (inactive)	7.45 µM (inactive)	10.8 µM (inactive)	2.45	1.42 µM (inactive)	15.9 µM (inactive)	4.86 µM (inactive)	2.14 µM (inactive)	1.64 µM (inactive)	9.25 µM (inactive)	2.9 µM (inactive)	6 µM (inactive)	–
CCOC(=O)c1ccc(Nc2nc3ccccc3nc2-c2cccs2)cc1	> 100 µM (inactive)	–	18.7 µM (inactive)	34 µM (inactive)	4.24 µM (inactive)	96.6 µM (inactive)	49.1 µM (inactive)	66.4 µM (inactive)	> 100 µM (inactive)	47.8 µM (inactive)	25.3	36.9 µM (inactive)	> 100 µM (inactive)	> 100 µM (inactive)	28.1 µM (inactive)	24.8 µM (inactive)	21.9 µM (inactive)	62.8 µM (inactive)	21.2 µM (inactive)	41.8 µM (inactive)
CC(NC(=O)Cc1ccccc1)NC(=O)C(C)C(=O)Nc1ccccc1 (stereo unspecified)	> 100 µM (inactive)	> 100 µM (inactive)	65.6 µM (inactive)	> 100 µM (inactive)	> 100 µM (inactive)	> 100 µM (inactive)	> 100 µM (inactive)	> 100 µM (inactive)	16.1 µM (inactive)	41.6 µM (inactive)	> 100	> 100 µM (inactive)	23.7 µM (inactive)	> 100 µM (inactive)	23.1 µM (inactive)	> 10 µM (inactive)	66.5 µM (inactive)	> 100 µM (inactive)	36.1 µM (inactive)	–
COc1cc2c(cc1OC)C13CC[N+]4(C)CC5=CCOC6CC(=O)N2C1C6C5CC34[O-] (stereo unspecified)	> 100 µM (inactive)	–	> 100 µM (inactive)	> 100 µM (inactive)	> 100 µM (inactive)	> 100 µM (inactive)	> 100 µM (inactive)	> 100 µM (inactive)	> 100 µM (inactive)	> 100 µM (inactive)	> 100	> 100 µM (inactive)	> 100 µM (inactive)	> 100 µM (inactive)	> 100 µM (inactive)	> 100 µM (inactive)	> 100 µM (inactive)	> 100 µM (inactive)	> 100 µM (inactive)	> 100 µM (inactive)
CC(=O)OC[C@@]12C[C@H]3C(=O)C(C)(C)C[C@H]3[C@]1(C)[C@@H](OC(C)=O)[C@]1(O)[C@H]([C@@H](OC(=O)c3ccccc3)[C@@H](C)[C@H]1OC(C)=O)[C@H]2OC(C)=O	16.5 µM (inactive)	> 20 µM (inactive)	> 20 µM (inactive)	6.19 µM (inactive)	> 20 µM (inactive)	8.71 µM (inactive)	> 20 µM (inactive)	–	–	> 20 µM (inactive)	> 20	> 20 µM (inactive)	> 20 µM (inactive)	> 20 µM (inactive)	> 20 µM (inactive)	4.92 µM (inactive)	> 20 µM (inactive)	–	> 20 µM (inactive)	6.21 µM (inactive)
CC1(C)OC(=S)N(c2ccccc2)C12C=Cc1ccccc1O2 (stereo unspecified)	–	> 100 µM (inactive)	> 100 µM (inactive)	71.6 µM (inactive)	75.5 µM (inactive)	63.4 µM (inactive)	35 µM (inactive)	> 100 µM (inactive)	–	> 100 µM (inactive)	58.9	36.4 µM (inactive)	> 100 µM (inactive)	> 100 µM (inactive)	20.2 µM (inactive)	8.59 µM (inactive)	> 100 µM (inactive)	24.8 µM (inactive)	> 100 µM (inactive)	27.8 µM (inactive)
CC(C)C1=CC23CCC4C(C)(C(=O)O)CCCC4(C)C2CC1C1C(=O)N(c2ccc(N4C(=O)C5C6CC7C8(C)CCCC(C)(C(=O)O)C8CCC7(C=C6C(C)C)C5C4=O)cc2)C(=O)C13 (stereo unspecified)	4.3 µM (inactive)	13.5 µM (inactive)	4.58 µM (inactive)	–	–	3.47 µM (inactive)	4.17 µM (inactive)	6.1 µM (inactive)	14.1 µM (inactive)	5.9 µM (inactive)	12.6	3.68 µM (inactive)	6.22 µM (inactive)	4.71 µM (inactive)	4.98 µM (inactive)	3.4 µM (inactive)	–	3.96 µM (inactive)	4.46 µM (inactive)	3.85 µM (inactive)
CC(=O)c1nc2ccccc2n1CC(=O)c1ccc([N+](=O)[O-])cc1	22.3 µM (inactive)	–	26.1 µM (inactive)	5.74 µM (inactive)	10 µM (inactive)	34.8 µM (inactive)	5.46 µM (inactive)	11.4 µM (inactive)	11.6 µM (inactive)	–	42.3	22 µM (inactive)	6.68 µM (inactive)	31.6 µM (inactive)	2.93 µM (inactive)	13.8 µM (inactive)	17.4 µM (inactive)	20.1 µM (inactive)	17.8 µM (inactive)	9.84 µM (inactive)
